The results in this text go back to ChEMBL document CHEMBL6092174, “Synthesis and anti-influenza virus activity of substituted dibenzoxepine-based baloxavir derivatives” (Eur J Med Chem, 2024).

This assay concerns Influenza A virus. The experiment in a line: Antiviral activity against Influenza A virus NA-H274Y (A/PR/8/34) infected in dog MDCK cells assessed as reduction in cytopathic effect incubated for 2 days. The class given is functional, organism-based. For orientation: Damage to the host cells serves as the signal in cytopathic effect assays.

With `O=C1c2c(O)c(=O)ccn2N([C@H]2c3ccc(F)cc3COc3ccccc32)[C@@H]2COCCN12`, the EC50 – broadly, the concentration needed to bring the measured effect to its halfway point – was determined as 4.2 nM. `O=C1c2c(O)c(=O)ccn2N([C@@H]2c3ccccc3OCc3c(Cl)cccc32)[C@@H]2COCCN12`: the EC50 came to 20.5 nM. For the compound `O=C1c2c(O)c(=O)ccn2N([C@@H]2c3ccccc3SCc3c2ccc(F)c3F)[C@@H]2COCCN12` [BALOXAVIR], the EC50 amounted to 2.18 nM.
